Laboratory results taken from patent US20120177690A1, “USE OF RAPAMYCIN DERIVATIVES IN VASCULOPATHIES AND XENOTRANSPLANTATION” (Novartis AG, priority 1996, published 2012).

Columns and labels:
[1] = tested on: hamster heart xenograft; test: In vivo heart xenotransplantation (hamster-to-rat)
Text: The hamster-into-rat xenograft combination is a so-called difficult concordant combination. […] This is visualized in histology by destruction of blood vessels, exsudation and extravasation of erythrocytes, and influx by polymorpho- nuclear granulocytes: often there are signs of hemorrhage and thrombosis. […] This is visualized in histology by influx of mononuclear cells, including lymphocytes, lymphoblastoid cells, and macrophages, and destruction of the myocyte parenchyma. The inhibition of cellular rejection requires more immuno-suppression than that of allografts. Congenitally athymic (mu/mu) rats lack a competent (thymus-dependent) cellular immune system and generally are unable to reject allografts.
The graft is monitored daily by palpation of the abdomen. Rejection is concluded in case of cessation of heart beat. Animals are weighed weekly. In the present series of experiments, the endpoint is set to 28 days. Animals are subjected to autopsy; apart from the graft, weight and histology is assessed for thymus, spleen, liver, seminal vesicles and testes. Blood is taken and processed to serum for the determination of cytolytic anti-hamster erythrocyte antibody and hemolytic complement activity.

[2] = tested on: carotid artery; test: Angioplasty, balloon catheter injury of the left common carotid artery; assay type: in vivo, RoRo rats; settings: for inhibition of neointima formation: day -3 to day +14
Experimental: Studies on angioplasty are done in the model of balloon catheter injury: Balloon catheterization is performed on day 0, essentially as described by Powell et al. (1989). Under Isofluorane anaesthesia, a Fogarty 2 F catheter is introduced into the left common carotid artery via the external carotid and inflated (distension≈10 μl H2O). The inflated balloon is withdrawn along the length of the common carotid three times, the latter two times whilst twisting gently to obtain a uniform de-endothelialization. The cathethcr is then removed, a ligature placed around the external carotid to prevent bleeding and the animals allowed to recover.
2 groups of 12 RoRo rats (400 g. approximately 24 weeks old) are used for the study: one control group and one group receiving the compound of formula I. The rats are fully randomized during all handling, experimental procedures and analysis.
The compound to be tested is administered p.o. (gavage) starting 3 days before balloon injury (day −3) until the end of the study, 14 days after balloon injury (day +14). Rats are kept in individual cages and allowed food and water ad libidum.
The rats are then anaesthetized with Isofluorane, a perfusion catheter inserted through the left ventricle and secured in the aortic arch, and an aspiration cannula inserted into the right ventricle. […] The perfusion pressure is 150 mmHg at the tip of the cannula (≈100 mmHg in the carotid artery), as determined in a preliminary experiment by introducing a cannula attached to a pressure transducer into the external carotid). […]
Sections 1-2 μm thick are cut from the middle section of each carotid with a hard metal knife on a rotary microtome and stained for 2 min with Giemsa stain. About 5 sections from each carotid are thus prepared and the cross-sectional area of the media, neointima and the lumen morphometrically evaluated by means of an image analysis system (MCID, Toronto, Canada).

[3] = tested on: kidney allograft; test: Chronic allograft rejection, rat kidney allograft model (DA to Lewis); assay type: in vivo
Experimental: The kidney of a male DA (RTI^a) rat is orthotopically transplanted into a male Lewis (RTI^1) recipient. In total 24 animals are transplanted. All animals are treated with cyclosporine A at 7.5 mg/kg/day per as for 14 days starting on the day of transplantation, to prevent acute cellular rejection. Contralateral nephrectomy is not performed. Each experimental group treated with a distinct dose of a compound of formula I or placebo comprises six animals.
Starting at day 53-64 after transplantation, the recipient animals are treated per os for another 69-72 days with a compound of formula I or receive placebo. At 14 days after transplantation animals are subjected to graft assessment by magnetic resonance imaging (MRI) with perfusion measurement of the kidneys (with comparison of the grafted kidney and the own contralateral kidney). This is repeated at days 53-64 after transplantation and at the end of the experiment. The animals are then autopsied. Rejection parameters such as MRI score, relative perfusion rate of the grafted kidney and histologic score of the kidney allograft for cellular rejection and vessel changes are determined and statistically analyzed. Administration of a compound of formula I, e.g. Compound A, at a dose of 0.5 to 2.5 mg/kg in this rat kidney allograft model yields a reduction in all above mentioned rejection parameters.

[4] = 4-week toxicity study in monkeys; assay type: in vivo
Experimental: (§1) Compounds of formula I are well tolerated at dosages required for use in accordance with the present invention. For example, the NTEL for Compound A in a 4-week toxicity study is 0.5 mg/kg/day in rats and 1.5 mg/kg/day in monkeys.

[5] = tested on: aorta allograft; test: Aorta transplantation in the rat (DA to Lewis); assay type: in vivo; settings: per os in microemulsion, 2.5 mg/kg/day for 7 weeks and 0.63-5.0 mg/kg/day for 11 weeks
Experimental: These include infiltration into the adventitia of mononuclear cells (lymphocytes, macrophages, some plasma cells), and thickening of the intima.
Donor aorta between the branch of the renal artery and the start of the caudal mesenteric aorta, about 1 cm in length, is harvested from a male DA (RTI^a) rat and transplanted orthotopically in a male Lewis (RTI^1) rat. Weekly after transplantation, the body weight is recorded. At autopsy, the graft with part of the aorta of the recipient just above and below the transplant is removed. It is perfused ex vivo with phosphate-buffered saline supplemented with 2% paraformaldehyde and 2.5% glutaraldehyde for about 2 minutes, then for 24 hours fixed by immersion fixation in the same solution, and thereafter fixed in 4% buffered formalin. Pieces of the graft are embedded in paraffin, in such a way that both a transversal section and a longitudinal section is made of the grafted aorta and the recipient's own aorta.
Sections of 4 μm thickness are stained by hematoxylin-eosin, elastica-von-Gieson and periodic-acid-Schiff. Apart from conventional light microscopy, images are recorded by confocal laser scanning microscopy. From each section, four areas are scanned, and from each area the thickness of the intima and intima+media is measured at five locations. […]

[6] = 4-week toxicity study in rats; assay type: in vivo
Experimental: as §1

[7] = 2.5 mg/kg/day per os, vs placebo group

## CO[C@H]1C[C@@H]2CC[C@@H](C)[C@@](O)(O2)C(=O)C(=O)N2CCCC[C@H]2C(=O)O[C@H]([C@H](C)C[C@@H]2CC[C@@H](OCCO)[C@H](OC)C2)CC(=O)[C@H](C)/C=C(\C)[C@@H](O)[C@@H](OC)C(=O)[C@H](C)C[C@H](C)/C=C/C=C/C=C/1C [Compound A, 40-O-(2-hydroxy)ethyl-rapamycin]
[1]; athymic recipients
  graft survival: prolonged graft survival
[1]; euthymic recipients
  graft survival: prolonged graft survival
[2]; 0.5 mg/kg p.o. daily
  inhibition of neointima formation: 50%
[2]; 2.5 mg/kg p.o. daily
  inhibition of neointima formation: 75%
[2]; p.o. day -3 to day +14, compared to the control animals
  intimal thickening: significantly less
[3]; [7]
  MRI score of rejection: significantly lower
  histologic score for cellular rejection and vessel changes: significantly lower
  reduction in perfusion rate assessed by MRI: significantly lower
[3]; dose of 0.5 to 2.5 mg/kg per os, from day 53-64 after transplantation for 69-72 days
  rejection parameters (MRI score, relative perfusion rate of the grafted kidney, histologic score for cellular rejection and vessel changes): reduction
[4]
  NTEL: 1.5 mg/kg/day
[5]
  graft infiltration: significantly inhibit
  neointima formation: significantly inhibit
[6]
  NTEL: 0.5 mg/kg/day
